# Patent US20230039917A1, “EXO-AZA SPIRO INHIBITORS OF MENIN-MLL INTERACTION” (Janssen Pharmaceutica NV, priority 2017, published 2023)
# Like-named read-outs stand apart in the source and are kept apart here.
# Key:
# [1] = tested on: MV-4-11 cells; test: Proliferation assay A (spheroid assay) MV-4-11; type: cell-based; conditions: Homo sapiens, MV4-11, 192 h, 8 d, AUC of confluence against time, absolute IC50, read-out: (3a) Spheroid assay MV-4-11 (IC50(μM)) Assay A
# Protocol: (§1) 3a) Proliferation Assay A
# (§2) The anti-proliferative effect of menin/MLL protein/protein interaction inhibitor test compounds was assessed in human leukemia cell lines. The cell lines MV-4-11 and MOLM14 harbor MLL translocations and express the MLL fusion proteins MLL-AF4 and MLL-AF9, respectively, as well as the wildtype protein from the second allele. […] K562 was used as a control cell line containing two MLL wildtype alleles in order to exclude compounds that display general cytotoxic effects.
# (§3) MV-4-11 and MOLM14 were cultured in RPMI-1640 (Sigma Aldrich) supplemented with 10% fetal bovine serum (HyClone), 2 mM L-glutamine (Sigma Aldrich) and 50 μg/ml gentamycin (Gibco). K562 were propagated in RPMI-1640 (Sigma Aldrich) supplemented with 20% fetal bovine serum (HyClone), 2 mM L-glutamine (Sigma Aldrich) and 50 μg/ml gentamycin (Gibco).
# (§4) In order to assess the anti-proliferative effects, 1,500 MV-4-11, 300 MOLM14 or 750 K562 cells were seeded in 200 μl media per well in 96-well round bottom, ultra-low attachment plates (Costar, catalogue number 7007). Cell seeding numbers were chosen based on growth curves to ensure linear growth throughout the experiment. Test compounds were added at different concentrations and the DMSO content was normalized to 0.3%. Cells were incubated for 8 d at 37° C. and 5% CO2. Spheroid like growth was monitored in real-time by live-cell imaging (IncuCyteZOOM, Essenbio, 4× objective) acquiring one image every four hours for 8 d. Confluence (%) as a measure of spheroid size was determined using an integrated analysis tool.
# (§5) In order to determine the cumulative effect of the test compounds over time, the area under the curve (AUC) in a plot of confluence against time was calculated. Confluence at the beginning of the experiment (t=0) was used as baseline for the AUC calculation.
# (§6) Absolute IC50 values were calculated according to the following procedure:
# (§7) % Control=(AUC sample/AUC control)*100
# (§8) AUC control=mean AUC of control values (cells without compound/DMSO as vehicle control)
# (§9) A non-linear curve fit was applied using the least squares (ordinary) fit method to the plot of % control versus compound concentration. Based on this, the absolute IC50 value (half maximal inhibitory concentration of the test compound causing an anti-proliferative effect of 50% relative to the vehicle control) was calculated.
# [2] = tested on: MOLM14 cells; test: Proliferation assay A (spheroid assay) MOLM14; type: cell-based; conditions: Homo sapiens, MOLM-14, 192 h, 8 d, AUC of confluence against time, absolute IC50, read-out: (3a) Spheroid assay MOLM14 (IC50(μM)) Assay A
# Protocol: as §1, §2, §3, §4, §5, §6, §7, §8, §9
# [3] = target: T1, menin.FITC-MBM1 complex (terbium chelate-labeled menin) (Homo sapiens, UniProt O00255, F410E/T541A); test: Menin/MLL homogenous time-resolved fluorescence (HTRF) assay; type: binding
# T1 construct: Menin (a.a. 1-610-6×his tag) was labeled with terbium cryptate as follows
# T1 sequence (O00255 with tags, fused parts or gaps F410E/T541A): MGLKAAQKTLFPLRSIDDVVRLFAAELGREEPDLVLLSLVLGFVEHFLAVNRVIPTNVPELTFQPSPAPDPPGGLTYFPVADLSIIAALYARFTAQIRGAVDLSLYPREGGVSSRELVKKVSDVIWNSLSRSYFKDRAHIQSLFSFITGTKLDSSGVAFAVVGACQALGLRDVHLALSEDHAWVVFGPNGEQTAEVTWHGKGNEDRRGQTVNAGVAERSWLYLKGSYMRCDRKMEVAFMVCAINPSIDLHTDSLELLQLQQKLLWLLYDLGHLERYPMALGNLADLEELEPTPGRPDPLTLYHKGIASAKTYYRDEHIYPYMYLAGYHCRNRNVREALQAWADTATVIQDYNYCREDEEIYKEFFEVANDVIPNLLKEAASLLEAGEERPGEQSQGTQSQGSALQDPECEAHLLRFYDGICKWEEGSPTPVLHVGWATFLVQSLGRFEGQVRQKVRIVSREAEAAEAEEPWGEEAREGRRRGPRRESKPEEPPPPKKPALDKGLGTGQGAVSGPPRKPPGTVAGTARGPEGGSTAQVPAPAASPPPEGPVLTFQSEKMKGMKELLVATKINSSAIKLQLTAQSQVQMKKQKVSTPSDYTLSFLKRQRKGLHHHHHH
# Protocol: 2) Menin/MLL Homogenous Time-Resolved Fluorescence (HTRF) Assay
# To an untreated, white 384-well microtiter plate was added 40 nL 200× test compound in DMSO and 4 μL 2× terbium chelate-labeled menin (vide infra for preparation) in assay buffer (40 mM Tris.HCl, pH 7.5, 50 mM NaCl, 1 mM DTT and 0.05% Plutonic F-127). After incubation of test compound and terbium chelate-labeled menin for 5 min at ambient temperature, 4 μL2× FITC-MBM1 peptide (FITC-β-alanine-[…]-NH2) in assay buffer was added, the microtiter plate centrifuged at 1000 rpm for 1 min and the assay mixtures incubated for 15 min at ambient temperature. The relative amount of menin.FITC-MBM1 complex present in an assay mixture is determined by measuring the homogenous time-resolved fluorescence (HTRF) of the terbium/FITC donor/acceptor fluorphore pair using a BMG Pherastar plate reader (ex. 337 nm/terbium em. 490 nm/FITC em. 520 nm) at ambient temperature. The degree of fluorescence resonance energy transfer (the HTRF value) is expressed as the ratio of the fluorescence emission intensities of the FITC and terbium fluorophores (F^em 520 nm/F^em 490 nm). The final concentrations of reagents in the binding assay are 100 pM terbium chelate-labeled menin (location 1) or 600 pM terbium chelate-labeled menin (location 2), 75 nM FITC-MBM1 peptide and 0.5% DMSO in assay buffer. Dose-response titrations of test compounds are conducted using an 11 point, three-fold serial dilution scheme, starting typically at 25 μM (location 1) or starting typically at 10 μM (location 2).
# Compound potencies were determined by first calculating % inhibition at each compound concentration according to equation 1:
# % inhibition=((HC−LC)−(HTRF^compound−LC))/(HC−LC))*100 (Eqn 1)
# Where LC and HC are the HTRF values of the assay in the presence or absence of a saturating concentration of a compound that competes with FITC-MBM1 for binding to menin, and HTRF^compound is the measured HTRF value in the presence of the test compound. HC and LC HTRF values represent an average of at least 16 replicates per plate.
# % inhibition=Bottom+(Top−Bottom)/(1+10^((log IC50−log [cmpd])*h)) (Eqn 2)
# Where Bottom and Top are the lower and upper asymptotes of the dose-response curve, respectively, IC50 is the concentration of compound that yields 50% inhibition of signal and h is the Hill coefficient.
# Preparation of Terbium cryptate labeling of Menin: Menin (a.a. 1-610-6×his tag) was labeled with terbium cryptate as follows. 2 mg of Menin was buffer exchanged into 1× phosphate buffered saline. 16 uM Menin was incubated with 4-fold molar excess NHS-terbium cryptate (Cisbio Bioassays, Bedford, Mass.) for 2 hours at room temperature. The labeled protein was purified away from free label by running the reaction over a Superdex 200 Increase 10/300 GL column at 0.75 ml/min. Peak fractions were collected, aliquoted and frozen at −80° C.
# [4] = tested on: MV-4-11 cells; test: Proliferation assay B (spheroid assay) MV-4-11; type: cell-based; conditions: Homo sapiens, MV4-11, 192 h, confluence at day 8, read-out: (3b) Spheroid assay MV-4-11 (IC50(μM)) Assay B
# Protocol: (§10) 3b) Proliferation Assay B
# as §2
# MV-4-11 and MOLM14 were cultured in RPMI-1640 (Sigma Aldrich) supplemented with 10% fetal bovine serum (HyClone), 2 mM L-glutamine (Sigma Aldrich) and 50 μg/ml gentamycin (Gibco). […]
# In order to assess the anti-proliferative effects, 1,500 MV-4-11, 300 MOLM14 cells or 750 K562 cells were seeded in 200 μl media per well in 96-well round bottom, ultra-low attachment plates (Costar, catalogue number 7007). […] Spheroid like growth was measured in real-time by live-cell imaging (IncuCyteZOOM, Essenbio, 4× objective) acquiring images at day 8. Confluence (%) as a measure of spheroid size was determined using an integrated analysis tool.
# In order to determine the effect of the test compounds over time, the confluence in each well as a measure of spheroid size, was calculated. […]
# Absolute IC50 values were calculated as percent change in confluence as follows: […]
# [5] = tested on: MOLM14 cells; test: Proliferation assay B (spheroid assay) MOLM14; type: cell-based, human; conditions: Homo sapiens, MOLM-14, 192 h, confluence at day 8, read-out: (3b) Spheroid assay MOLM14 (IC50(μM)) Assay B
# Protocol: as §10, §2, §3
# as §4, with “MOLM14 cells” for “MOLM14”, “measured” for “monitored”, “images at day 8.” for “one image every four hours for 8 d.”
# In order to determine the effect of the test compounds over time, the confluence in each well as a measure of spheroid size, was calculated. Confluence […] at the beginning of the experiment (t=0) was used as baseline for the calculation.
# Absolute IC50 values were calculated as percent change in confluence as follows:
# LC=Low Control: cells treated with 1 μM of the cytotoxic agent staurosporin
# HC=High Control: Mean confluence (%) (DMSO treated cells)
# Effect=100−(100*(Sample−LC)/(HC−LC))
# To determine the IC50 a curve is fitted to the plot of % Effect vs Log 10 compound concentration using a sigmoidal fit with a variable slope and fixing the maximum to 100% and the minimum to 0%.
# [6] = location 2, read-out: (2) location 2 Menin HTRF assay (IC50 (nM))
# [7] = location 1, read-out: (2) location 1 Menin HTRF assay (IC50 (nM))
SMILES,IC50 [1] [µM],IC50 [2] [µM],"IC50 [3, 6] [nM]","IC50 [3, 7] [nM]",IC50 [4] [µM],IC50 [5] [µM]
FC(F)(F)Cc1cc2c(N3CCC4(CCC(Nc5ccc(-c6cc[nH]n6)cc5)C4)C3)ncnc2s1 (stereo not shown) [Compound 138],3.92,> 3.75,8.8,,,
N#CCn1c(=O)[nH]c2cc(CNC3CCC4(C3)CN(c3ncnc5sc(CC(F)(F)F)cc35)C4)ccc21 (stereo not shown) [Compound 99],,,1.1,,0.03,0.19

# Continued by falling IC50 [2], values first:
IC50 [1] [µM],IC50 [2] [µM],"IC50 [3, 6] [nM]","IC50 [3, 7] [nM]",IC50 [4] [µM],IC50 [5] [µM],SMILES
0.41,2.36,,20.4,,,FC(F)(F)Cc1cc2c(N3CC4(CC[C@H](NCc5ccccc5)C4)C3)ncnc2s1 [Compound 45]
0.45,2,5.1,,,,"O=c1[nH]c2ccc(CN[C@H]3CCC4(C3)CN(c3ncnc5sc(CC(F)(F)F)cc35)C4)cc2o1 (single isomer, unassigned) [Compound 56]"
0.31,1.87,,22,,,"FC(F)(F)Cc1cc2c(N3CC4(CCC(NCc5ccccc5)C4)C3)ncnc2s1 (single isomer, unassigned) [Compound 46]"
,0.14,,,,,"O=c1[nH]c2cc(CN[C@H]3CCC4(C3)CN(c3ncnc5sc(CC(F)(F)F)cc35)C4)ccc2o1 (single isomer, unassigned) [Compound 58]"
